According to patent US11976083B2, “Inhibitors of peptidylarginine deiminases” (Gilead Sciences, Inc., priority 2020, dated 2024):

Biological target: T1, human PAD4 (Homo sapiens, UniProt Q9UM07)
T1 construct: human PAD4 (NM_012387), A2-P663, was PCR amplified; His-SUMO (N, cleaved yes); made in house; host or cells: E. coli BL21(DE3)
Assay: In vitro PAD4 BAEE biochemical assay
Details: BAEE substrate 3 mM, 5 nM PAD4, 2 mM calcium chloride; geometric mean of multiple experiments
Method in brief: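 PAD4 5 nM, CaCl2 2 mM, BAEE 3 mM final; 50 mM MOPS pH 7.6, 50 mM NaCl, 0.05% Tween-20, 2 mM DTT. Cpd + enzyme 30 min 25 °C; substrate 2 h 25 °C; EDTA stop; OPA detection 1 h. IC50 4-parameter fit.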

T1 sequence (Q9UM07 2-663): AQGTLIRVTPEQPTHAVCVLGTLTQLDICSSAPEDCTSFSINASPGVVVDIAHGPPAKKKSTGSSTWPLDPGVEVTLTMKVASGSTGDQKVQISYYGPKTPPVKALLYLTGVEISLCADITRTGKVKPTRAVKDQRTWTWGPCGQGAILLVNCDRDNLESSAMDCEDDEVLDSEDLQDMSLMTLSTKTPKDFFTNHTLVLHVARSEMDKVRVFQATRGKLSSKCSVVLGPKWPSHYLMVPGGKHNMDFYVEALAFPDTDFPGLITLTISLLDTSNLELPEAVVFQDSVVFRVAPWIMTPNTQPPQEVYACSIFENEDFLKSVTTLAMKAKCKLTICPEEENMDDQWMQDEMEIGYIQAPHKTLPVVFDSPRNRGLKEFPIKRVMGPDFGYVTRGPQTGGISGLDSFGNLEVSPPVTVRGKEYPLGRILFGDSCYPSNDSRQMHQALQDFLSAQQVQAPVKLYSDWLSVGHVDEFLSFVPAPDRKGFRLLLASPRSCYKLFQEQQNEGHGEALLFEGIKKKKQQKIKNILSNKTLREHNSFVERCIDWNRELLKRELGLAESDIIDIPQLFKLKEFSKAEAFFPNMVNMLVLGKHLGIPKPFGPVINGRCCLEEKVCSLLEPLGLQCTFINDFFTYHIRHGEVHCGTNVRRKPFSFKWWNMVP

SMILES	IC50 [nM]
COc1cc(C(=O)N2C[C@H](N)[C@@H]3CC[C@H]2C3)cc2nc(-c3cc4ccc5nc4n3CCCCCc3nccnc3C(=O)N[C@@H]5C)n(C)c12 [Example 484, (2~{R})-17-[5-[(1~{S},4~{R},5~{R})-4-amino-2-azabicyclo[3.2.1]octane-2-carbonyl]-7-methoxy-1-methyl-benzimidazol-2-yl]-2-methyl-3,6,9,16,22-pentazatetracyclo[14.5.2.0^{5,10}.0^{19, 23}]tricosa-1(22),5(10),6,8,17,19(23),20-heptaen-4-one]	44
C[C@H]1NC(=O)c2nccnc2CCCCCn2c(-c3nc4cc(C(=O)N5C[C@H](N)[C@@H]6CC[C@H]5C6)cc(F)c4n3C3CC3)cc3ccc1nc32 [Example 485, (2~{R})-17-[5-[(1~{S),4~{R},5~{R})-4-amino-2-azabicyclo[3.2.1]octane-2-carbonyl]-1-cyclopropyl-7-fluoro-benzimidazol-2-yl]-2-methyl-3,6,9,16,22-pentazatetracyclo[14.5.2.0^{5,10}.0^{19, 23}]tricosa-1(22),5(10),6,8,17,19(23),20-heptaen-4-one]	29
C[C@H]1NC(=O)C(C)(C)CCCCCCn2c(-c3nc4cc(C(=O)N5[C@H]6CC[C@@H]5[C@H](N)C6)c(F)cc4n3C3CC3)cc3ccc1nc32 [Example 488, (11~{R})-17-[5-[(1~ {R},2~{R},4~{S})-2-amino-7-azabicyclo [2.2.1]heptane-7-carbonyl]-1-cyclopropyl-6-fluoro-benzimidazol-2-yl]-8,8,11-trimethyl-1,10,19-triazatricyclo [10.5.2.0^{15,18}]nonadeca-12(19),13,15(18),16-tetraen-9-one]	64
COc1cc(C(=O)N2CC[C@@H](OCC(F)F)[C@@H](N)C2)cc2nc(-c3cc4ccc5nc4n3CCCCC[C@@H]3C[C@H]3C(=O)N[C@@H]5C)n(C)c12 [Example 489, (2~{R},5~{R}, 7~{R})-14-[5-[(3~{S},4~{R})-3-amino-4-(2,2-difluoroethoxy)piperidine-1-carbonyl]-7-methoxy-1-methyl-benzimidazol-2-yl]-2-methyl-3,13,19-triazatetracyclo [11.5.2.0^{5,7}.0^{16,20}] icosa-1(19),14,16(20), 17-tetraen-4-one]	78
COc1cc(C(=O)N2CC[C@@H](OCC3CC3)[C@@H](N)C2)cc2nc(-c3cc4ccc5nc4n3CCCCC[C@@H]3C[C@H]3C(=O)N[C@@H]5C)n(C)c12 [Example 490, (2~{R},5~{R},7~{R})-14-[5-[(3~{S},4~{R})-3-amino-4-(cyclopropylmethoxy)piperidine-1-carbonyl]-7-methoxy-1-methyl-benzimidazol-2-yl]-2-methyl-3,13,19-triazatetracyclo [11.5.2.0^{5,7}.0^{16,20}] icosa-1(19),14,16(20), 17-tetraen-4-one]	86
COc1cc(C(=O)N2CC[C@@H](OC(F)F)[C@@H](N)C2)cc2nc(-c3cc4ccc5nc4n3CCCCCc3ccccc3C(=O)N[C@@H]5C)n(C)c12 [Example 491, (2~{R})-17-[5-[(3~ {S},4~{R})-3-amino-4-(difluoromethoxy)piperidine-1-carbonyl]-7-methoxy-1-methyl-benzimidazol-2-yl]-2-methyl-3,16,22-triazatetracyclo [14.5.2.0^{5,10}.0^{19,23}] tricosa-1(22),5(10), 6,8,17,19(23),20-heptaen-4-one]	253
COc1cc(C(=O)N2CC[C@@H](OC(F)F)[C@@H](N)C2)cc2nc(-c3cc4ccc5nc4n3CCCCCc3cnccc3C(=O)N[C@@H]5C)n(C)c12 [Example 492, (2~{R})-17-[5-[(3~{S}, 4~{R})-3-amino-4-(difluoromethoxy)piperidine-1-carbonyl]-7-methoxy-1-methyl-benzimidazol-2-yl]-2-methyl-3,8,16,22-tetrazatetracyclo [14.5.2.0^{5,10}.0^{19,23}] tricosa-1(22),5(10), 6,8,17,19(23),20-heptaen-4-one]	156
COCCO[C@@H]1CCN(C(=O)c2cc(OC)c3c(c2)nc(-c2cc4ccc5nc4n2CCCCC[C@@H]2C[C@H]2C(=O)N[C@@H]5C)n3C)C[C@@H]1N [Example 493, (2~{R},5~{R},7~{R})-14-[5-[(3~{S},4~{R})-3-amino-4-(2-methoxyethoxy)piperidine-1-carbonyl]-7-methoxy-1-methyl-benzimidazol-2-yl]-2-methyl-3,13,19-triazatetracyclo [11.5.2.0^{5,7}.0^{16,20}] icosa-1(19),14,16(20), 17-tetraen-4-one]	76
COc1cc(C(=O)N2CC[C@@H](OCC34CC(F)(C3)C4)[C@@H](N)C2)cc2nc(-c3cc4ccc5nc4n3CCCCC[C@@H]3C[C@H]3C(=O)N[C@@H]5C)n(C)c12 [Example 494]	136
COc1cc(C(=O)N[C@H]2CNCCC2(F)F)cc2nc(-c3cc4ccc5nc4n3CCC/C=C/c3ccccc3C(=O)N[C@@H]5C)n(C)c12 [Example 495, ~{N}-[(3~{S})-4,4-difluoro-3-piperidyl]-7-methoxy-1-methyl-2-[(2~{R},11~{E})-2-methyl-4-oxo-3,16,22-triazatetracyclo[14.5.2.0^ {5,10}.0^{19,23}]tricosa-1(22),5(10),6,8,11, 17,19(23),20-octaen-17-yl] benzimidazole-5-carboxamide]	518
COc1cc(C(=O)N2CC[C@@H](OC)[C@@H](N)C2)cc2nc(-c3cc4ccc5nc4n3CCC/C=C/c3ccccc3C(=O)N[C@@H]5C)n(C)c12 [Example 496, (2~{R},11~{E})-17-[5-[(3~{S},4~{R})-3-amino-4-methoxy-piperidine-1-carbonyl]-7-methoxy-1-methyl-benzimidazol-2-yl]-2-methyl-3,16,22-triazatetracyclo[14.5.2.0^ {5,10).0^{19,23}]tricosa-1(22),5(10),6,8,11,17,19 (23),20-octaen-4-one]	125
C[C@H]1NS(=O)(=O)CCCC/C=C/Cn2c(-c3nc4cc(C(=O)N[C@H]5CNCC[C@@H]5F)c(F)cc4n3C)cc3ccc1nc32 [Example 497, 6-fluoro-~{N}-[(3~ {S},4~{S})-4-fluoro-3-piperidyl]-1-methyl-2-[(3~{E},11~{R})-11-methyl-9,9-dioxo-9$1^6-thia-1,10,19-triazatricyclo[10.5.2.0^{15,18}]nonadeca-3,12(19),13,15 (18),16-pentaen-17-yl]benzimidazole-5-carboxamide]	54
C[C@H]1NC(=O)c2ncccc2CCCCCn2c(-c3nc4cc(C(=O)N[C@H]5CNCC[C@@H]5F)c(F)cc4n3C)cc3ccc1nc32 [Example 498, 6-fluoro-~{N}-[(3~{S}, 4~{S})-4-fluoro-3-piperidyl]-1-methyl-2-[(2~{R})-2-methyl-4-oxo-3,6,16,22-tetrazatetracyclo [14.5.2.0^{5,10}.0^ {19,23}]tricosa-1(22), 5,7,9,17,19(23),20-heptaen-17-yl]benzimidazole-5-carboxamide]	67
C[C@H]1NC(=O)[C@H]2C[C@@H]2CCCCn2c(-c3nc4cc(C(=O)N[C@H]5CNCC[C@@H]5F)c(F)cc4n3C)cc3ccc1nc32 [Example 499, 6-fluoro-~{N}-[(3~ {S},4~{S})-4-fluoro-3-piperidyl]-1-methyl-2-[(2~{R},7~{S})-2-methyl-4-oxo-3,12,18-triazatetracyclo [10.5.2.0^{5,7}.0^{15,19}]nonadeca-1(18), 13,15(19),16-tetraen-13-yl]benzimidazole-5-carboxamide]	163
C[C@H]1NC(=O)C(C)(C)CCCCCCn2c(-c3nc4cc(C(=O)N[C@H]5CNCC[C@@H]5F)ccc4n3C)cc3ccc1nc32 [Example 500, ~{N}-[(3~{S},4~ {S})-4-fluoro-3-piperidyl]-1-methyl-2-[(11~{R})-8,8,11-trimethyl-9-oxo-1,10,19-triazatricyclo[10.5.2.0^ {15,18}]nonadeca-12(19), 13,15(18),16-tetraen-17-yl]benzimidazole-5-carboxamide]	90
C[C@H]1NC(=O)C(C)(C)CCCCCCn2c(-c3nc4cc(C(=O)N[C@H]5CNCC[C@@H]5F)cc(Cl)c4n3C)cc3ccc1nc32 [Example 501, 7-chloro-~{N}-[(3~ {S},4~{S})-4-fluoro-3-piperidyl]-1-methyl-2-[(11~{R})-8,8,11-trimethyl-9-oxo-1,10,19-triazatricyclo[10.5.2.0^{15,18}]nonadeca-12(19),13,15(18), 16-tetraen-17-yl] benzimidazole-5-carboxamide]	271
C[C@H]1NC(=O)C(C)(C)CCCCCCn2c(-c3nc4cc(C(=O)N[C@H]5CNCC[C@@H]5F)c(F)cc4n3CCOC(F)F)cc3ccc1nc32 [Example 502, 1-[2-(difluoromethoxy)ethyl]-6-fluoro-~{N}-[(3~ {S},4~{S})-4-fluoro-3-piperidyl]-2-[(11~{R})-8,8,11-trimethyl-9-oxo-1,10,19-triazatricyclo[10.5.2.0^ {15,18}]nonadeca-12(19),13,15(18),16-tetraen-17-yl]benzimidazole-5-carboxamide]	128
COc1cc(C(=O)N2CC[C@@H](OC)[C@@H](N)C2)cc2nc(-c3cc4ccc5nc4n3CCCCCc3cccnc3C(=O)N[C@@H]5C)n(C)c12 [Example 503, (2~{R})-17-[5-[(3~ {S},4~{R})-3-amino-4-methoxy-piperidine-1-carbonyl]-7-methoxy-1-methyl-benzimidazol-2-yl]-2-methyl-3,6,16,22-tetrazatetracyclo [14.5.2.0^{5,10).0^{19,23}] tricosa-1(22),5(10),6,8,17,19(23),20-heptaen-4-one]	110
CO[C@@H]1CCN(C(=O)c2cc(Cl)c3c(c2)nc(-c2cc4ccc5nc4n2CCCCCc2nccnc2C(=O)N[C@@H]5C)n3C)C[C@@H]1N [Example 504, (2~{R})-17-[5-[(3~ {S},4~{R})-3-amino-4-methoxy-piperidine-1-carbonyl]-7-chloro-1-methyl-benzimidazol-2-yl]-2-methyl-3,6,9,16,22-pentazatetracyclo [14.5.2.0^{5,10}.0^{19, 23}]tricosa-1(22),5(10), 6,8,17,19(23),20-heptaen-4-one]	172
